From article PMC8621193, “In Vitro Evaluation of a Solid Supersaturated Self Nanoemulsifying Drug Delivery System (Super-SNEDDS) of Aprepitant for Enhanced Solubility” (Pharmaceuticals, 2021)
≈ marks a conversion by molar mass, not a printed value. Where two headings read alike, the source gives them in different places.

Legend:
[1] = cited from earlier work
[2] = Equilibrium (apparent) solubility of APR, shake flask method; assay type: physicochemical; conditions: for solubility at 24 h: thermodynamic from solid
Description: The solubility of APR in various buffers, oils, surfactants, cosurfactants, cosolvents, and formulations was measured using the shake flask method. Briefly, an excess APR was added into a polypropylene tube that contains a medium. Tube mixed by a vortex (Daihan VM-10, South Korea) for 1 min to disperse APR. Mixtures were shaken at 100 rpm for 24 h at various temperatures in a thermostatically controlled shaking water bath (Nüve ST30, Turkey). Mixtures were then centrifuged at 13,500 rpm (12,225× g) for 15 min. The supernatant samples were suitably diluted with the mobile phase. Drug concentration was obtained via the validated HPLC method.
Saturated SNEDDS were prepared by adding excess APR into blank preconcentrates and then precipitate the insoluble part of APR. Briefly, SNEDDS and excess APR mixtures were shaken at 100 rpm for 24 h at 37 °C in a shaking water bath. Mixtures were then centrifuged at 13,500 rpm (12,225× g) for 15 min. The supernatant was separated carefully to obtain saturated SNEDDS.

[3] = cited from earlier work; remark: listed apart in the source

- solubility at 24 h ([2]; 37 °C, organic solvent or mixture, Imwitor 988:Kolliphor RH40:Transcutol P (%) 20:60:20, 37 °C, read-out: APR solubility (loading capacity of SNEDDS preconcentrate)): 21600 µg/mL (≈ 40.5 mM)
- solubility at 24 h ([2]; 37 °C, organic solvent or mixture, Imwitor 988:Kolliphor RH40:Transcutol P (%) 30:10:60, 37 °C, read-out: APR solubility (loading capacity of SNEDDS preconcentrate)): 55300 µg/mL (≈ 104 mM)
- solubility at 24 h ([2]; Brij O10 (surfactant), 25 °C, aqueous with cosolvent or surfactant or cyclodextrin, surfactant Brij O10, 25 °C, read-out: APR solubility): 9870 µg/mL (≈ 18.5 mM)
- solubility at 24 h ([2]; Capryol 90 (cosurfactant), 25 °C, organic solvent or mixture, cosurfactant Capryol 90, 25 °C, read-out: APR solubility): 17000 µg/mL (≈ 31.8 mM)
- solubility at 24 h ([2]; Castor oil (oily excipient), 25 °C, oil or lipid, oily excipient Castor oil, 25 °C, read-out: APR solubility): 2920 µg/mL (≈ 5.47 mM)
- solubility at 24 h ([2]; Cinnamon oil (oily excipient), 25 °C, oil or lipid, oily excipient Cinnamon oil, 25 °C, read-out: APR solubility): 8470 µg/mL (≈ 15.8 mM)
- solubility at 24 h ([2]; Eucalyptus oil (oily excipient), 25 °C, oil or lipid, oily excipient Eucalyptus oil, 25 °C, read-out: APR solubility): 6840 µg/mL (≈ 12.8 mM)
- solubility at 24 h ([2]; Glycerine (cosolvent), 25 °C, organic solvent or mixture, cosolvent Glycerine, 25 °C, read-out: APR solubility): 13 µg/mL (≈ 0.0243 mM)
- solubility at 24 h ([2]; Imwitor 988 (oily excipient), 25 °C, oil or lipid, oily excipient Imwitor 988, 25 °C, read-out: APR solubility): 19800 µg/mL (≈ 37 mM)
- solubility at 24 h ([2]; Kolliphor ELP (surfactant), 25 °C, aqueous with cosolvent or surfactant or cyclodextrin, surfactant Kolliphor ELP, 25 °C, read-out: APR solubility): 4230 µg/mL (≈ 7.92 mM)
- solubility at 24 h ([2]; Kolliphor HS15 (surfactant), 25 °C, aqueous with cosolvent or surfactant or cyclodextrin, surfactant Kolliphor HS15, 25 °C, read-out: APR solubility): 7160 µg/mL (≈ 13.4 mM)
- solubility at 24 h ([2]; Kolliphor RH40 (surfactant), 25 °C, aqueous with cosolvent or surfactant or cyclodextrin, surfactant Kolliphor RH40, 25 °C, read-out: APR solubility): 8980 µg/mL (≈ 16.8 mM)
- solubility at 24 h ([2]; Kollisolv GTA (oily excipient), 25 °C, oil or lipid, oily excipient Kollisolv GTA, 25 °C, read-out: APR solubility): 3150 µg/mL (≈ 5.89 mM)
- solubility at 24 h ([2]; Kollisolv P124 (surfactant), 25 °C, aqueous with cosolvent or surfactant or cyclodextrin, surfactant Kollisolv P124, 25 °C, read-out: APR solubility): 10700 µg/mL (≈ 20 mM)
- solubility at 24 h ([2]; Labrafac PG (oily excipient), 25 °C, oil or lipid, oily excipient Labrafac PG, 25 °C, read-out: APR solubility): 427 µg/mL (≈ 0.799 mM)
- solubility at 24 h ([2]; Labrafac lipophile WL 1349 (oily excipient), 25 °C, oil or lipid, oily excipient Labrafac lipophile WL 1349, 25 °C, read-out: APR solubility): 282 µg/mL (≈ 0.528 mM)
- solubility at 24 h ([2]; Labrafil M 1944 CS (surfactant), 25 °C, aqueous with cosolvent or surfactant or cyclodextrin, surfactant Labrafil M 1944 CS, 25 °C, read-out: APR solubility): 3500 µg/mL (≈ 6.55 mM)
- solubility at 24 h ([2]; Labrafil M 2125 CS (surfactant), 25 °C, aqueous with cosolvent or surfactant or cyclodextrin, surfactant Labrafil M 2125 CS, 25 °C, read-out: APR solubility): 2840 µg/mL (≈ 5.32 mM)
- solubility at 24 h ([2]; Labrasol (surfactant), 25 °C, aqueous with cosolvent or surfactant or cyclodextrin, surfactant Labrasol, 25 °C, read-out: APR solubility): 15900 µg/mL (≈ 29.8 mM)
- solubility at 24 h ([2]; Lauroglycol 90 (cosurfactant), 25 °C, organic solvent or mixture, cosurfactant Lauroglycol 90, 25 °C, read-out: APR solubility): 9320 µg/mL (≈ 17.4 mM)
- solubility at 24 h ([2]; Lauroglycol FCC (cosurfactant), 25 °C, organic solvent or mixture, cosurfactant Lauroglycol FCC, 25 °C, read-out: APR solubility): 14200 µg/mL (≈ 26.6 mM)
- solubility at 24 h ([2]; Lemon oil (oily excipient), 25 °C, oil or lipid, oily excipient Lemon oil, 25 °C, read-out: APR solubility): 3090 µg/mL (≈ 5.79 mM)
- solubility at 24 h ([2]; Maisine CC (oily excipient), 25 °C, oil or lipid, oily excipient Maisine CC, 25 °C, read-out: APR solubility): 5360 µg/mL (≈ 10 mM)
- solubility at 24 h ([2]; Miglyol 812 (oily excipient), 25 °C, oil or lipid, oily excipient Miglyol 812, 25 °C, read-out: APR solubility): 299 µg/mL (≈ 0.559 mM)
- solubility at 24 h ([2]; Miglyol 840 (oily excipient), 25 °C, oil or lipid, oily excipient Miglyol 840, 25 °C, read-out: APR solubility): 1590 µg/mL (≈ 2.97 mM)
- solubility at 24 h ([2]; Oleic acid (oily excipient), 25 °C, oil or lipid, oily excipient Oleic acid, 25 °C, read-out: APR solubility): 8480 µg/mL (≈ 15.9 mM)
- solubility at 24 h ([2]; Olive Yağı (oily excipient), 25 °C, oil or lipid, oily excipient Olive Yağı, 25 °C, read-out: APR solubility): 181 µg/mL (≈ 0.339 mM)
- solubility at 24 h ([2]; PEG 200 (cosolvent), 25 °C, organic solvent or mixture, cosolvent PEG 200, 25 °C, read-out: APR solubility): 11700 µg/mL (≈ 21.9 mM)
- solubility at 24 h ([2]; PEG 400 (cosolvent), 25 °C, organic solvent or mixture, cosolvent PEG 400, 25 °C, read-out: APR solubility): 12000 µg/mL (≈ 22.5 mM)
- solubility at 24 h ([2]; Peceol (oily excipient), 25 °C, oil or lipid, oily excipient Peceol, 25 °C, read-out: APR solubility): 7780 µg/mL (≈ 14.5 mM)
- solubility at 24 h ([2]; Peppermint oil (oily excipient), 25 °C, oil or lipid, oily excipient Peppermint oil, 25 °C, read-out: APR solubility): 16600 µg/mL (≈ 31 mM)
- solubility at 24 h ([2]; Plurol Oleique CC 497 (cosurfactant), 25 °C, organic solvent or mixture, cosurfactant Plurol Oleique CC 497, 25 °C, read-out: APR solubility): 4140 µg/mL (≈ 7.75 mM)
- solubility at 24 h ([2]; Propylene glycol (cosolvent), 25 °C, organic solvent or mixture, cosolvent Propylene glycol, 25 °C, read-out: APR solubility): 8380 µg/mL (≈ 15.7 mM)
- solubility at 24 h ([2]; Sesame oil (oily excipient), 25 °C, oil or lipid, oily excipient Sesame oil, 25 °C, read-out: APR solubility): 2230 µg/mL (≈ 4.17 mM)
- solubility at 24 h ([2]; Transcutol P (cosolvent), 25 °C, organic solvent or mixture, cosolvent Transcutol P, 25 °C, read-out: APR solubility): 46500 µg/mL (≈ 87 mM)
- solubility at 24 h ([2]; Tween 20 (surfactant), 25 °C, aqueous with cosolvent or surfactant or cyclodextrin, surfactant Tween 20, 25 °C, read-out: APR solubility): 7820 µg/mL (≈ 14.6 mM)
- solubility at 24 h ([2]; Tween 60 (surfactant), 25 °C, aqueous with cosolvent or surfactant or cyclodextrin, surfactant Tween 60, 25 °C, read-out: APR solubility): 5040 µg/mL (≈ 9.44 mM)
- solubility at 24 h ([2]; Tween 80 (surfactant), 25 °C, aqueous with cosolvent or surfactant or cyclodextrin, surfactant Tween 80, 25 °C, read-out: APR solubility): 2140 µg/mL (≈ 4 mM)
- solubility at 24 h ([2]; blank SNEDDS preconcentrate, 37 °C, organic solvent or mixture, Imwitor 988:Kolliphor RH40:Transcutol P (%) 10:30:60, 37 °C, read-out: APR solubility (loading capacity of SNEDDS preconcentrate)): 43100 µg/mL (≈ 80.7 mM)
- solubility at 24 h ([2]; blank SNEDDS preconcentrate, 37 °C, organic solvent or mixture, Imwitor 988:Kolliphor RH40:Transcutol P (%) 10:40:50, 37 °C, read-out: APR solubility (loading capacity of SNEDDS preconcentrate)): 34600 µg/mL (≈ 64.7 mM)
- solubility at 24 h ([2]; blank SNEDDS preconcentrate, 37 °C, organic solvent or mixture, Imwitor 988:Kolliphor RH40:Transcutol P (%) 10:50:40, 37 °C, read-out: APR solubility (loading capacity of SNEDDS preconcentrate)): 26900 µg/mL (≈ 50.4 mM)
- solubility at 24 h ([2]; blank SNEDDS preconcentrate, 37 °C, organic solvent or mixture, Imwitor 988:Kolliphor RH40:Transcutol P (%) 10:60:30, 37 °C, read-out: APR solubility (loading capacity of SNEDDS preconcentrate)): 22900 µg/mL (≈ 42.9 mM)
- solubility at 24 h ([2]; blank SNEDDS preconcentrate, 37 °C, organic solvent or mixture, Imwitor 988:Kolliphor RH40:Transcutol P (%) 10:70:20, 37 °C, read-out: APR solubility (loading capacity of SNEDDS preconcentrate)): 18800 µg/mL (≈ 35.2 mM)
- solubility at 24 h ([2]; blank SNEDDS preconcentrate, 37 °C, organic solvent or mixture, Imwitor 988:Kolliphor RH40:Transcutol P (%) 10:80:10, 37 °C, read-out: APR solubility (loading capacity of SNEDDS preconcentrate)): 15500 µg/mL (≈ 28.9 mM)
- solubility at 24 h ([2]; blank SNEDDS preconcentrate, 37 °C, organic solvent or mixture, Imwitor 988:Kolliphor RH40:Transcutol P (%) 20:10:70, 37 °C, read-out: APR solubility (loading capacity of SNEDDS preconcentrate)): 51000 µg/mL (≈ 95.4 mM)
- solubility at 24 h ([2]; blank SNEDDS preconcentrate, 37 °C, organic solvent or mixture, Imwitor 988:Kolliphor RH40:Transcutol P (%) 20:40:40, 37 °C, read-out: APR solubility (loading capacity of SNEDDS preconcentrate)): 29000 µg/mL (≈ 54.3 mM)
- solubility at 24 h ([2]; blank SNEDDS preconcentrate, 37 °C, organic solvent or mixture, Imwitor 988:Kolliphor RH40:Transcutol P (%) 20:50:30, 37 °C, read-out: APR solubility (loading capacity of SNEDDS preconcentrate)): 23500 µg/mL (≈ 44 mM)
- solubility at 24 h ([2]; blank SNEDDS preconcentrate, 37 °C, organic solvent or mixture, Imwitor 988:Kolliphor RH40:Transcutol P (%) 20:70:10, 37 °C, read-out: APR solubility (loading capacity of SNEDDS preconcentrate)): 15800 µg/mL (≈ 29.6 mM)
- solubility at 24 h ([2]; blank SNEDDS preconcentrate, 37 °C, organic solvent or mixture, Imwitor 988:Kolliphor RH40:Transcutol P (%) 30:20:50, 37 °C, read-out: APR solubility (loading capacity of SNEDDS preconcentrate)): 45100 µg/mL (≈ 84.3 mM)
- solubility at 24 h ([2]; blank SNEDDS preconcentrate, 37 °C, organic solvent or mixture, Imwitor 988:Kolliphor RH40:Transcutol P (%) 30:60:10, 37 °C, read-out: APR solubility (loading capacity of SNEDDS preconcentrate)): 17000 µg/mL (≈ 31.9 mM)
- solubility at 24 h ([2]; buffer pH 1.2, 37 °C, pH 1.2, simulated gastric fluid, buffer pH 1.2, 37 °C, 24 h, read-out: APR solubility): 15.6 µg/mL (≈ 0.0293 mM)
- solubility at 24 h ([2]; buffer pH 4.5, 37 °C, pH 4.5, aqueous buffer, buffer pH 4.5, 37 °C, 24 h, read-out: APR solubility): 0.79 µg/mL (≈ 0.00148 mM)
- APR solubility ([2]; buffer pH 6.8, 37 °C, 24 h): < LOD
- APR solubility ([2]; buffer pH 7.4, 37 °C, 24 h): < LOD
Structure (SMILES): C[C@@H](O[C@H]1OCCN(Cc2nc(=O)[nH][nH]2)[C@H]1c1ccc(F)cc1)c1cc(C(F)(F)F)cc(C(F)(F)F)c1 [APR, 5-(((2R,3S)-2-((1R)-1-(3,5-bis(trifluoromethyl)phenyl)ethoxy)-3-(4-fluorophenyl)4-morpholinyl)methyl)-1,2-dihydro-3H-1,2,4-triazol-3-one]
- solubility in acetonitrile ([1]; acetonitrile): slightly soluble
- logP ([1]; at neutral pH): 4.8
- permeability [1]: moderate
- solubility in ethanol ([1]; ethanol): sparingly soluble
- solubility in isopropyl acetate ([1]; isopropyl acetate): sparingly soluble
- pKa ([1]; ref 5): 9.7
- Biopharmaceutical Classification System (BCS) class ([1]; ref 7): Class II
- Biopharmaceutical Classification System (BCS) class ([1]; ref 8): Class IV
- solubility in water ([1]; water): practically insoluble
- mean oral bioavailability ([3]; 80 mg Emend capsule): 67%
- mean oral bioavailability ([3]; 125 mg Emend capsule): 59%
- time to maximum plasma concentration (Tmax) ([3]; in vivo): 4 h
- time of mean peak plasma concentration ([3]; ref 14): approximately 4 h
